Twelve molecules from ChEMBL document CHEMBL3779814, “6-O-Nucleotidyltransferase: an aminoglycoside-modifying enzyme specific for streptomycin/streptidine” (2016) can be followed below.

Values after ≈ are worked out from the molar mass of the structure shown. Active and inactive are the calls of the source. No cut-off for these calls is given here.

In experiment [1] the test system is Bacillus subtilis. The experiment is described as follows: Activity of Bacillus subtilis N-terminal His-tagged ANT(6) expressed in Escherichia coli BL21(DE3) cells assessed as adenylated product by Michaelis-Menten kinetics.
In experiment [2] the test system is Escherichia coli. The experiment is described as follows: Antibacterial activity against Escherichia coli incubated for 12 hrs in presence of 2-deoxystreptidine. Format: functional.
In experiment [3] the test system is Escherichia coli. The experiment is described as follows: Antibacterial activity against Escherichia coli BL21(DE3) harboring pET plasmid incubated for 12 hrs in presence of 2-deoxystreptidine. It counts as functional.
The test system of experiment [4] is Escherichia coli. The experiment is described as follows: Antibacterial activity against Escherichia coli BL21(DE3) expressing Bacillus subtilis N-terminal His-tagged ANT(6) incubated for 12 hrs in presence of 2-deoxystreptidine. Format: functional.
The test system of experiment [5] is Escherichia coli. In words: Antibacterial activity against Escherichia coli in presence of streptidine. It counts as functional.
For experiment [6], the system named is Escherichia coli. The experiment is described as follows: Antibacterial activity against Escherichia coli BL21(DE3) harboring pET plasmid in streptidine. Format: functional.
The subject of experiment [7] is Escherichia coli. The experiment is described as follows: Antibacterial activity against Escherichia coli BL21(DE3) expressing Bacillus subtilis N-terminal His-tagged ANT(6) in presence of streptidine. It counts as functional.
For experiment [8], the system named is Escherichia coli. In words: Antibacterial activity against Escherichia coli. Format: functional.
For experiment [9], the system named is Escherichia coli. In words: Antibacterial activity against Escherichia coli BL21(DE3). It counts as functional.
Experiment [10] relates to Escherichia coli. In words: Antibacterial activity against Escherichia coli BL21(DE3) expressing ANT(6). Format: functional.
The test system of experiment [11] is Bacillus subtilis. The experiment is described as follows: Activity of Bacillus subtilis N-terminal His-tagged ANT(6) expressed in Escherichia coli BL21(DE3) cells assessed as ratio of Kcat to Km of adenylated product by Michaelis-Menten kinetics.
A further experiment has as its system Serratia marcescens. The experiment is described as follows: Activity of Serratia marcescens ANT(3'')-1i/AAC(6')-2d expressed in Escherichia coli BL21(DE3) cells assessed as ratio of Kcat to Km of ANT(3'')-1i domain catalysed adenylated product by steady state kinetic analysis.
In experiment [12] the test system is Escherichia coli. The experiment is described as follows: Antibacterial activity against Escherichia coli incubated for 12 hrs. Format: functional.
In experiment [13] the test system is Escherichia coli. In words: Antibacterial activity against Escherichia coli BL21(DE3) expressing Bacillus subtilis N-terminal His-tagged ANT(6) incubated for 12 hrs. Format: functional.
Experiment [14] has as its system Escherichia coli. The experiment is described as follows: Antibacterial activity against Escherichia coli BL21(DE3) harboring pET plasmid incubated for 12 hrs. It counts as functional.

Take `O=c1ccn([C@@H]2O[C@H](COP(=O)(O)OP(=O)(O)OP(=O)(O)O)[C@@H](O)[C@H]2O)c(=O)[nH]1`: the outcome in the experiment with Bacillus subtilis [1] was Active.
The term MIC90 denotes an inhibitory concentration at the 90% level, which refers to growth in some studies and to a panel of isolates in others. As usually defined, the Km is the substrate concentration at which the rate is half of its maximum. As usually defined, the kcat is the number of substrate molecules converted per active site and unit of time at saturation. As to `CN[C@@H]1[C@H](O[C@H]2[C@H](O[C@H]3[C@H](O)[C@@H](O)[C@H](N=C(N)N)[C@@H](O)[C@@H]3N=C(N)N)O[C@@H](C)[C@]2(O)C=O)O[C@@H](CO)[C@H](O)[C@H]1O` [STREPTOMYCIN], the MIC90 stood at 2 µg/mL in the experiment on Escherichia coli [2]; 100 µg/mL in the experiment on Escherichia coli [3]; 100 µg/mL in the experiment on Escherichia coli [4]; 5 µg/mL with Escherichia coli [5]; 5 µg/mL (≈ 8.6 µM) with Escherichia coli [6]; 10 µg/mL in the experiment with Escherichia coli [7]. Further, the values for the MIC90 in the experiment with Escherichia coli [8], with Escherichia coli [9] and against Escherichia coli [10] were 5 µg/mL (≈ 8.6 µM), 5 µg/mL (≈ 8.6 µM) and > 200 µg/mL, respectively. Moreover, the kcat/Km in the experiment with Bacillus subtilis [11] amounted to 9.2 ×10² /s/M; with Serratia marcescens it was 3.2 ×10⁵ /s/M. In the experiment on Bacillus subtilis [1], the Km was determined as 38 µM. Further, in the experiment with Bacillus subtilis [1], the kcat was 0.03 s⁻¹.
Turning to `Nc1ncnc2c1ncn2[C@@H]1O[C@H](COP(=O)(O)OP(=O)(O)O)[C@@H](O)[C@H]1O`, the outcome in the experiment on Bacillus subtilis [1] was inactive.
On the same count and under the same terms, the value for `Nc1nc2c(ncn2[C@@H]2O[C@H](COP(=O)(O)OP(=O)(O)OP(=O)(O)O)[C@@H](O)[C@H]2O)c(=O)[nH]1` was “Active”.
With `Nc1ncnc2c1ncn2[C@@H]1O[C@H](COP(=O)(O)OP(=O)(O)OP(=O)(O)O)[C@@H](O)[C@H]1O`, the kcat/Km in the experiment with Bacillus subtilis [11] was 2.1 ×10² /s/M. In addition, in the experiment with Bacillus subtilis [1], the outcome was Active, the Michaelis-Menten constant (Km) turned out to be 84 µM and the catalytic constant (kcat) is 0.018 s⁻¹.
For the molecule `Nc1ncnc2c1ncn2[C@@H]1O[C@H](COP(=O)(O)CP(=O)(O)OP(=O)(O)O)[C@@H](O)[C@H]1O`, the result in the experiment with Bacillus subtilis [1] was inactive.
Still for that read-out and setting: the value for `NC[C@H]1O[C@H](O[C@H]2[C@H](O[C@@H]3O[C@H](CO)[C@@H](O)[C@H]3O)[C@@H](O)[C@H](N)C[C@@H]2N)[C@H](N)[C@@H](O)[C@@H]1O` was “inactive”.
With `N[C@@H]1C[C@H](N)[C@@H](O)[C@H](O)[C@H]1O`, the MIC90 against Escherichia coli [12] and against Escherichia coli [13] was > 100 µg/mL in each case.
In the case of `N=C(N)N[C@@H]1[C@@H](O)[C@H](NC(=N)N)[C@@H](O)[C@H](O)[C@H]1O`, the MIC90 was > 100 µg/mL against Escherichia coli [12], > 100 µg/mL in the experiment with Escherichia coli [14] and > 200 µg/mL in the experiment on Escherichia coli [13]. The kcat/Km in the experiment on Bacillus subtilis [11] is 1.2 M⁻¹ s⁻¹. Moreover, the Km with Bacillus subtilis [1] came to 600 µM. The kcat in the experiment with Bacillus subtilis [1] stood at 0.0006 s⁻¹.
As to `Nc1ncnc2c1ncn2[C@@H]1O[C@H](COP(=O)(O)O)[C@@H](O)[C@H]1O`, the result in the experiment with Bacillus subtilis [1] was inactive.
The same measure, in the same setting: the value for `Nc1ccn([C@@H]2O[C@H](COP(=O)(O)OP(=O)(O)OP(=O)(O)O)[C@@H](O)[C@H]2O)c(=O)n1` was “Active”; that for `NC[C@H]1O[C@H](O[C@H]2[C@H](O)[C@@H](O[C@H]3O[C@H](CO)[C@@H](O)[C@H](N)[C@H]3O)[C@H](N)C[C@@H]2N)[C@H](O)[C@@H](O)[C@@H]1O` was “inactive”.
